From patent US9694021B2, “Pharmaceutical compositions with phosphonium antimicrobial agents” (Alcon Research, Ltd., priority 2010, dated 2017)

What was measured:
Assay type in all cases: cell-based
Staph Aureus = assay: Preservative efficacy test (PET), Staph Aureus; details: boric acid/mannitol/NaCl, pH 6.0
Excerpt: (§1) The present invention is particularly useful for the provision of multi-dose pharmaceutical (e.g., ophthalmic) compositions that have sufficient antimicrobial activity to allow the compositions to satisfy the USP preservative efficacy requirements, as well as other preservative efficacy standards for aqueous pharmaceutical compositions.
(§2) The preservative efficacy standards for multi-dose ophthalmic solutions in the U.S. and other countries/regions are set forth in the following table:
(§3) Concentrations for the various ingredients of the compositions of the examples provided below are w/v % unless otherwise specifically stated. The compositions of Examples A-D and their preservation efficacy testing (PET) results are provided below.

Pseudomonas A. = assay: Preservative efficacy test (PET), Pseudomonas A.; details: boric acid/mannitol/NaCl, pH 6.0
Excerpt: as §1, §2, §3

E. Coli = assay: Preservative efficacy test (PET), E. Coli; details: boric acid/mannitol/NaCl, pH 6.0
Excerpt: as §1, §2, §3

Candida A. = assay: Preservative efficacy test (PET), Candida A.; details: boric acid/mannitol/NaCl, pH 6.0
Excerpt: as §1, §2, §3

Aspergillus N. = assay: Preservative efficacy test (PET), Aspergillus N.; details: boric acid/mannitol/NaCl, pH 6.0
Excerpt: as §1, §2, §3

Bacteria, Fungi = assay: PET overall result (Pass/Fail against USP / Ph. Eur. criteria); details: for PET Results (Pass/Fail): boric acid/mannitol/NaCl, pH 6.0
Excerpt: as §1, §2, §3

canine epithelial cells = assay: Cytotoxicity, neutral red retention
Excerpt: FIGS. 1 and 2 illustrate the relative cytotoxicity of compounds, some of which are in accordance with the present invention.
FIGS. 1 and 2 illustrate the cytotoxicity of the compounds shown in the above examples. In particular, these Figures show the neutral red retention of canine epithelial cells for the various compounds with the greater neutral red retention showing the lower the cytotoxicity. […] As such, many of these phosphonium antimicrobial agents can be used as suitable replacements for benzalkonium chloride particularly in circumstances where benzalkonium chloride is unsuitable (e.g., is incompatible with other ingredients in a solution).

In the case of `OC[P+](CO)(CO)CO.[Cl-]` [Tetrakis-Hydroxymethyl-Phosphonium Chloride], the “Staph Aureus (6 Hr), PET log order reduction” value (Staph Aureus; 0.0025 % w/v) is reported as 5.0/5.0/, the “Staph Aureus (6 Hr), PET log order reduction” value (Staph Aureus; 0.005 % w/v) is reported as 5.0/5.0/ and the “Staph Aureus (6 Hr), PET log order reduction” value (Staph Aureus; 0.01 % w/v) is reported as 5.0/5.0/. The “Staph Aureus (7 Day), PET log order reduction” value (Staph Aureus; 0.0025 % w/v) was 5.0/5.0/5.0, the “Staph Aureus (7 Day), PET log order reduction” value (Staph Aureus; 0.005 % w/v) was 5.0/5.0/5.0 and the “Staph Aureus (7 Day), PET log order reduction” value (Staph Aureus; 0.01 % w/v) was 5.0/5.0/5.0. The “Staph Aureus (14 Day), PET log order reduction” value (Staph Aureus; 0.0025 % w/v) was 5.0/5.0/5.0, the “Staph Aureus (14 Day), PET log order reduction” value (Staph Aureus; 0.005 % w/v) was 5.0/5.0/5.0 and the “Staph Aureus (14 Day), PET log order reduction” value (Staph Aureus; 0.01 % w/v) was 5.0/5.0/5.0. The “Staph Aureus (24 Hr), PET log order reduction” value (Staph Aureus; 0.0025 % w/v) was 5.0/5.0/, the “Staph Aureus (24 Hr), PET log order reduction” value (Staph Aureus; 0.005 % w/v) was 5.0/5.0/ and the “Staph Aureus (24 Hr), PET log order reduction” value (Staph Aureus; 0.01 % w/v) was 5.0/5.0/. For the same compound, the “Staph Aureus (28 Day), PET log order reduction” value (Staph Aureus; 0.0025 % w/v) was 5.0/5.0/5.0, the “Staph Aureus (28 Day), PET log order reduction” value (Staph Aureus; 0.005 % w/v) was 5.0/5.0/5.0 and the “Staph Aureus (28 Day), PET log order reduction” value (Staph Aureus; 0.01 % w/v) was 5.0/5.0/5.0. For the same compound, the “Pseudomonas A. (6 Hr), PET log order reduction” value (Pseudomonas A.; 0.0025 % w/v) was 3.3, the “Pseudomonas A. (6 Hr), PET log order reduction” value (Pseudomonas A.; 0.005 % w/v) was 5.0/5.0/ and the “Pseudomonas A. (6 Hr), PET log order reduction” value (Pseudomonas A.; 0.01 % w/v) was 5.0/5.0/. For the same compound, the “Pseudomonas A. (7 Day), PET log order reduction” value (Pseudomonas A.; 0.0025 % w/v) was 5.0/5.0/5.0, the “Pseudomonas A. (7 Day), PET log order reduction” value (Pseudomonas A.; 0.005 % w/v) was 5.0/5.0/5.0 and the “Pseudomonas A. (7 Day), PET log order reduction” value (Pseudomonas A.; 0.01 % w/v) was 5.0/5.0/5.0. The “Pseudomonas A. (14 Day), PET log order reduction” value (Pseudomonas A.; 0.0025 % w/v) was 5.0/5.0/5.0, the “Pseudomonas A. (14 Day), PET log order reduction” value (Pseudomonas A.; 0.005 % w/v) was 5.0/5.0/5.0 and the “Pseudomonas A. (14 Day), PET log order reduction” value (Pseudomonas A.; 0.01 % w/v) was 5.0/5.0/5.0. The “Pseudomonas A. (24 Hr), PET log order reduction” value (Pseudomonas A.; 0.0025 % w/v) was 5.0, the “Pseudomonas A. (24 Hr), PET log order reduction” value (Pseudomonas A.; 0.005 % w/v) was 5.0/5.0/ and the “Pseudomonas A. (24 Hr), PET log order reduction” value (Pseudomonas A.; 0.01 % w/v) was 5.0/5.0/. For the same compound, the “Pseudomonas A. (28 Day), PET log order reduction” value (Pseudomonas A.; 0.0025 % w/v) was 5.0/5.0/5.0, the “Pseudomonas A. (28 Day), PET log order reduction” value (Pseudomonas A.; 0.005 % w/v) was 5.0/5.0/5.0 and the “Pseudomonas A. (28 Day), PET log order reduction” value (Pseudomonas A.; 0.01 % w/v) was 5.0/5.0/5.0. For the same compound, the “E. Coli (6 Hr), PET log order reduction” value (E. Coli; 0.0025 % w/v) was 5.1/5.1/, the “E. Coli (6 Hr), PET log order reduction” value (E. Coli; 0.005 % w/v) was 5.1/5.1/ and the “E. Coli (6 Hr), PET log order reduction” value (E. Coli; 0.01 % w/v) was 5.1/5.1/. For the same compound, the “E. Coli (7 Day), PET log order reduction” value (E. Coli; 0.0025 % w/v) was 5.1/5.1/5.1, the “E. Coli (7 Day), PET log order reduction” value (E. Coli; 0.005 % w/v) was 5.1/5.1/5.1 and the “E. Coli (7 Day), PET log order reduction” value (E. Coli; 0.01 % w/v) was 5.1/5.1/5.1. The “E. Coli (14 Day), PET log order reduction” value (E. Coli; 0.0025 % w/v) was 5.1/5.1/5.1, the “E. Coli (14 Day), PET log order reduction” value (E. Coli; 0.005 % w/v) was 5.1/5.1/5.1 and the “E. Coli (14 Day), PET log order reduction” value (E. Coli; 0.01 % w/v) was 5.1/5.1/5.1. The “E. Coli (24 Hr), PET log order reduction” value (E. Coli; 0.0025 % w/v) was 5.1/5.1/, the “E. Coli (24 Hr), PET log order reduction” value (E. Coli; 0.005 % w/v) was 5.1/5.1/ and the “E. Coli (24 Hr), PET log order reduction” value (E. Coli; 0.01 % w/v) was 5.1/5.1/. The “E. Coli (28 Day), PET log order reduction” value (E. Coli; 0.0025 % w/v) was 5.1/5.1/5.1, the “E. Coli (28 Day), PET log order reduction” value (E. Coli; 0.005 % w/v) was 5.1/5.1/5.1 and the “E. Coli (28 Day), PET log order reduction” value (E. Coli; 0.01 % w/v) was 5.1/5.1/5.1. The “Candida A. (7 Day), PET log order reduction” value (Candida A.; 0.0025 % w/v) was 0.0, the “Candida A. (7 Day), PET log order reduction” value (Candida A.; 0.005 % w/v) was 0.1 and the “Candida A. (7 Day), PET log order reduction” value (Candida A.; 0.01 % w/v) was 0.9. For the same compound, the “Candida A. (14 Day), PET log order reduction” value (Candida A.; 0.0025 % w/v) was 0.2, the “Candida A. (14 Day), PET log order reduction” value (Candida A.; 0.005 % w/v) was 0.7 and the “Candida A. (14 Day), PET log order reduction” value (Candida A.; 0.01 % w/v) was 2.2. The “Candida A. (28 Day), PET log order reduction” value (Candida A.; 0.0025 % w/v) was 1.2, the “Candida A. (28 Day), PET log order reduction” value (Candida A.; 0.005 % w/v) was 2.0 and the “Candida A. (28 Day), PET log order reduction” value (Candida A.; 0.01 % w/v) was 3.9. For the same compound, the “Aspergillus N. (7 D), PET log order reduction” value (Aspergillus N.; 0.0025 % w/v) was 3.1, the “Aspergillus N. (7 D), PET log order reduction” value (Aspergillus N.; 0.005 % w/v) was 3.3 and the “Aspergillus N. (7 D), PET log order reduction” value (Aspergillus N.; 0.01 % w/v) was 3.2. The “Aspergillus N. (14 D), PET log order reduction” value (Aspergillus N.; 0.0025 % w/v) was 2.9, the “Aspergillus N. (14 D), PET log order reduction” value (Aspergillus N.; 0.005 % w/v) was 3.2 and the “Aspergillus N. (14 D), PET log order reduction” value (Aspergillus N.; 0.01 % w/v) was 5.3. The “Aspergillus N. (28 Day), PET log order reduction” value (Aspergillus N.; 0.0025 % w/v) was 2.4, the “Aspergillus N. (28 Day), PET log order reduction” value (Aspergillus N.; 0.005 % w/v) was 3.2 and the “Aspergillus N. (28 Day), PET log order reduction” value (Aspergillus N.; 0.01 % w/v) was 5.3. For the same compound, the “PET Results (Pass/Fail)” value (Bacteria, Fungi; 0.0025 % w/v) was “Pass USP”, the “PET Results (Pass/Fail)” value (Bacteria, Fungi; 0.005 % w/v) was “Pass USP” and the “PET Results (Pass/Fail)” value (Bacteria, Fungi; 0.01 % w/v) was “Pass EP-B”. For the same compound, the “preservation / antimicrobial efficacy, in words” value (Bacteria, Fungi; summary statements of the text on the PET tables) was “highly desirable antimicrobial efficacy”, the “cytotoxicity (neutral red retention of canine epithelial cells)” value (canine epithelial cells; FIG. 1, greater neutral red retention = lower cytotoxicity) was “extremely low level of cytotoxicity” and the “cytotoxicity (neutral red retention of canine epithelial cells)” value (canine epithelial cells; FIG. 2, various concentrations and vehicles) was “extremely low toxicity regardless of concentration and/or the vehicle”.
